Several values for one entry are separate records, joined by “and”; a condition that tells them apart may be missing. Equal values may be shown once. Entries after “also recorded” stand apart in the source; their conditions may differ. Square brackets hold non-standard residues; d marks the D form. Ends that are not written are not given here. Cha = N[C@@H](CC1CCCCC1)C(=O)O; Phg = N[C@H](C(=O)O)c1ccccc1; Nva = CCC[C@H](N)C(=O)O
Columns and labels:
[1] = fluorescent staining of peptide beads with NBD-labeled dichlorophenol; format: binding; details: 30% 1,4-dioxane solvent (FIG. 10)
Procedure: About 2.5 million peptide beads were used for screening, the number being equal to the number of combinations of all the sequences of peptides comprising 5 amino acid residues. The primary screening was conducted in a screening solvent (a 10 mM phosphate buffer containing 20% 1,4-dioxane (pH: 8)) containing 4 nM NBD-labeled dichlorophenol. 20 ml of the buffer solution was first mixed with about 50 mg of the peptide beads, and the mixture was subsequently incubated overnight, with mild shaking, in a petri dish at room temperature. A fraction of fluorescently stained peptide beads observed by a fluorescent microscope was collected with a micropipette. These peptide beads were transferred into a micro test tube containing 50 or 100% 1,4-dioxane, and were then incubated overnight at room temperature, i.e., washing with 50 or 100% dioxane overnight at room temperature. Peptide beads which were unable to be washed, on which the NBD-labeled dichlorophenol was unspecifically adsorbed, were excluded. Peptide beads that could be washed were re-stained with 1 nM NBD-labeled dichlorophenol. In order to measure the fluorescence intensity, fluorescent microscope images of the peptide beads were recorded with a digital camera (FIG. 4).
(§1) 1 ml of a screening solvent containing 4 nM NBD-labeled dichlorophenol and 0-100 nM of a substance to be detected was prepared in a glass vial, and then three dioxin-binding peptide beads were put into the screening solvent. The resulting mixture was incubated, with mild shaking, overnight at room temperature, and then fluorescent microscope images thereof were recorded. The average fluorescence intensity of each bead was calculated from the recorded images. Calculation of the average fluorescence intensity was performed with an image analysis/measurement software, “Image-Pro Plus” (Planetron, Inc.). When competitive binding of the dichlorophenol with a dioxin occurs, the fluorescence intensity of each bead decreases depending on the concentration of the dioxin. Such a method of measuring the dioxin concentration utilizing the quenching phenomenon of the beads was termed “the method of competitive dioxin binding on bead”.
A library of twenty-one kinds of single amino acid-substituted peptides shown in FIG. 8 was constructed in order to evaluate the importance of each amino acid of the obtained oligopeptides, and to optimize the sequences. […]
(§2) Tests were conducted on the above-mentioned peptides by the method of competitive dioxin binding on bead described in Example 2, using a 30% 1,4-dioxane solvent. […] All the four kinds of single residue-substituted peptides were evaluated for dioxin binding capability by the method of competitive dioxin binding on bead.

[2] = method of competitive dioxin binding on bead (2,3,7,8-TeCDD); details: for capability of detecting 2,3,7,8-TeCDD compared with DB2: 30% 1,4-dioxane solvent
Procedure: as §1
The DB2 peptide was evaluated for affinity to dioxins by the method of competitive dioxin binding on bead. FIGS. 6 (A) and 6 (B) show the results of tests conducted in a solvent containing 30% 1,4-dioxane. The relationship between dioxin concentration and average fluorescence intensity is plotted in FIG. 6 (A). As shown in the figure, declining sigmoid curves, which are characteristic of the competitive binding, were obtained. The curves were fitted using the four-parameter logistic equation, y=(a−d)/(1+(x/c)^b)+d, which is an empirical equation typically employed in competitive ELISA (Eiji Ishikawa, “Enzyme Immunoassay (3rd Edition)”, IGAKU-SHOIN).
(§3) The quenching ratio was calculated using the equation shown below. The beads were evaluated for affinity with the substances detected based on the values of quenching ratios.
(§4) quenching ratio=(fluorescence intensity 1−fluorescence intensity 2)/fluorescence intensity 1×100(%)
The binding constants of the DB2 peptide were calculated using the results of the above equation. Fitting was performed based on the theoretical equation for one-to-one binding of a receptor with a ligand as shown below:
as §2

[3] = secondary screening of peptide beads: fluorescence decrease by competition with 2,3,7-TriCDD; format: binding; details: 1 nM NBD-labeled dichlorophenol, 10 mM phosphate buffer pH 8 with 20% 1,4-dioxane
Text: A peptide library was constructed by split-and-pool synthesis, one of the typical techniques of combinatorial chemistry, using beads for peptide solid-phase synthesis. According to the present method, a peptide of one kind of sequence is synthesized on a single bead. […] Primary screening involved screening of fluorescently stained peptide beads, using a composite (FIG. 3) obtained by labeling 3,4-dichlorophenol, which has an analogous structure to dioxins, with NBD as a fluorescent material.
About 2.5 million peptide beads were used for screening, the number being equal to the number of combinations of all the sequences of peptides comprising 5 amino acid residues. […] In order to measure the fluorescence intensity, fluorescent microscope images of the peptide beads were recorded with a digital camera (FIG. 4).
The aforementioned washable peptide beads were put into 1 ml of a screening solvent containing 1 nM NBD-labeled dichlorophenol and 10 or 100 nM 2,3,7-trichlorodibenzo-p-dioxin (2,3,7-TriCDD). The mixture was incubated overnight with mild shaking at room temperature, and was then transferred onto a glass petri dish, and fluorescent microscope images thereof were recorded. The obtained images were compared with the images recorded in the previous test so as to screen decreased beads. […]

[4] = method of competitive dioxin binding on bead (2,3,7-TriCDD)
Procedure: 1 ml of a screening solvent containing 4 nM NBD-labeled dichlorophenol and 0-100 nM of a substance to be detected was prepared in a glass vial, and then three dioxin-binding peptide beads were put into the screening solvent. The resulting mixture was incubated, with mild shaking, overnight at room temperature, and then fluorescent microscope images thereof were recorded. The average fluorescence intensity of each bead was calculated from the recorded images. Calculation of the average fluorescence intensity was performed with an image analysis/measurement software, “Image-Pro Plus” (Planetron, Inc.). When competitive binding of the dichlorophenol with a dioxin occurs, the fluorescence intensity of each bead decreases depending on the concentration of the dioxin. […]
The DB2 peptide was evaluated for affinity to dioxins by the method of competitive dioxin binding on bead. […] The relationship between dioxin concentration and average fluorescence intensity is plotted in FIG. 6 (A). […]
as §3, §4
The binding constants of the DB2 peptide were calculated using the results of the above equation. […]

[5] = 30% 1,4-dioxane, 4 nM NBD-labeled dichlorophenol, 0-100 nM substance
[6] = peptide beads, solvent containing 30% 1,4-dioxane, fit of quenching ratio to one-to-one binding equation

Substance	fluorescence intensity when stained, compared with DB2 peptide [1]	capability of detecting 2,3,7,8-TeCDD compared with DB2 [2]	2,3,7,8-TeCDD concentration that can be detected ([2]; 30% 1,4-dioxane)	quenching by competition with 10 nM 2,3,7-TriCDD [3]	other results
Cha Leu Asp Gln Val ([Cha]LDQV) [SEQ ID No. 5]	equal to or greater than that of the DB2 peptide	equal to or more than that of DB2			
Phe Leu Asp Gln Leu (FLDQL) [SEQ ID No. 23]	equal to or greater than that of the DB2 peptide	equal to or more than that of DB2			
Phe Leu Asp Gln Nva (FLDQ[Nva]) [SEQ ID No. 24]	equal to or greater than that of the DB2 peptide	equal to or more than that of DB2			
Phe Leu Asp Gln Phg (FLDQ[Phg]) [SEQ ID No. 22]	equal to or greater than that of the DB2 peptide	equal to or more than that of DB2	0.15 nM and 0.05 ng/ml		detection sensitivity to 2,3,7,8-TeCDD relative to DB2 ([2]; 30% dioxane solvent): about ten times greater than that of DB2; also recorded: about ten times higher than that of DB2
Phe-Leu-Asp-Gln-Ile (FLDQI) [DB1]		equal to or more than that of DB2		confirmed	
Phe-Leu-Asp-Gln-Val (FLDQV) [DB2]			1 nM and about 0.3 ng/ml	confirmed	concentration-dependent quenching by 2,3,7-TriCDD [4, 5]: Concentration-dependent quenching was observed; affinity (binding constant Ka) for 2,3,7-TriCDD [4, 6]: 2e+08 M⁻¹; concentration-dependent quenching by 2,3,7,8-TeCDD [2, 5]: Concentration-dependent quenching was observed; affinity (binding constant Ka) for 2,3,7,8-TeCDD [2, 6]: 1.7e+09 M⁻¹

Source: patent publication US20080038838A1, “Dioxin-Binding Material and Method of Detecting or Quantifying Dioxin” (Towa Kagaku Co., Ltd., priority 2003, published 2008)
